The values below come from US8686146B2, “Azaindenoisoquinoline topoisomerase I inhibitors” (Purdue Research Foundation, priority 2012, dated 2014).

Structures can show the parent of a compound that is named as a salt. Where two headings read alike, the source gives them in different places.

The target of one data set is T1, human recombinant Top1 (Homo sapiens, UniProt P11387).
T1 construct: made in house
T1 sequence (P11387 1-765): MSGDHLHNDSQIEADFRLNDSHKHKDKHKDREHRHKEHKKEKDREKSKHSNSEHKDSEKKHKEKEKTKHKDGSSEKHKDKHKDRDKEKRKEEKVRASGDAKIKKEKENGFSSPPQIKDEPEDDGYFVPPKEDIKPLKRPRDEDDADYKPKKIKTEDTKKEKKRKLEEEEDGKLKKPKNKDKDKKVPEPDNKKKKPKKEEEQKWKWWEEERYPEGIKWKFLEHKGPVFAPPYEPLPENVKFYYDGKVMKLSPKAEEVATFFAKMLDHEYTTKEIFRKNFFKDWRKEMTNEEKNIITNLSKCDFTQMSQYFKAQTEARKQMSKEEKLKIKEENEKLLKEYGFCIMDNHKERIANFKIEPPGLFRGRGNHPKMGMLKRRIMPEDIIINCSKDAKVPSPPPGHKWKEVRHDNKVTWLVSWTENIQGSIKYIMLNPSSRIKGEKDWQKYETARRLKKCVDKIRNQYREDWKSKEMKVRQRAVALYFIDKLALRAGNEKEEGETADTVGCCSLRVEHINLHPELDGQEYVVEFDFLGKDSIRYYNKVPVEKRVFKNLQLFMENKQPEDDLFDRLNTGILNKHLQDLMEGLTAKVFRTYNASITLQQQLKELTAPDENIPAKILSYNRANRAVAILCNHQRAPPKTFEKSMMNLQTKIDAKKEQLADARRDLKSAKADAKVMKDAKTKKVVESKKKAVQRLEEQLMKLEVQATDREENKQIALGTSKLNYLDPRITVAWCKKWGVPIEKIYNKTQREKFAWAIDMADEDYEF
Nature of the data set: Top1-mediated DNA cleavage assay. The class given is biochemical. The following applies: semiquantitative, relative to compounds 1 and 2. Here is the method:
Unincorporated [^32P]dGTP was removed using mini Quick […] columns (Roche, Indianapolis, Ind.), and the eluate containing the […] DNA substrate was collected. […] Aliquots of each reaction mixture were subjected to 20% denaturing PAGE. […] The DNA fragments were separated on a denaturing gel. […] All of the target compounds were tested for induction of DNA damage in Top1-mediated DNA cleavage assays, as described above.

Data set [1] has as its system approximately 60 different human cancer cell lines. As to the kind of experiment: NCI screen, mean graph midpoint over all cell lines. The following applies: all human cancer cell lines successfully tested, 48 h. The class given is cell-based. Here is the method:
(§1) Cells of approximately 60 different human cancer cell lines were incubated for 48 h with five 10-fold dilutions of the tested compounds starting from 100 μM and then treated with sulforhodamine B dye. The ratios of recorded optical densities relative to that of the control were plotted as a function of the common logarithm of the tested compound concentrations. […] The GI50 and the mean graph midpoint (MGM) values of the prepared indenoisoquinolines in selected cell lines are presented in Table I.
(§2) The antiproliferative activity of each compound was determined in the National Cancer Institute (NCI) screen as described above. Cells of approximately 60 different human cancer cell lines were incubated for 48 h with five 10-fold dilutions of the test compounds starting from 100 μM, and then treated with sulforhodamine B dye. The ratios of recorded optical densities relative to those of the control were plotted as a function of the common logarithm of the tested compound concentrations. […] The GI50 and the mean graph midpoint (MGM) values of the prepared (aza)indeno-isoquinolines in selected cell lines are presented in Table 2.

A further data set has as its system HOP-62. As to the kind of experiment: NCI screen antiproliferative activity, lung HOP-62. The protocol:
as §1, §2

A further data set deals with HCT-116. As to the kind of experiment: NCI screen antiproliferative activity, colon HCT-116. Here is the method: as §1, §2
Another data set concerns SF-539. As to the kind of experiment: NCI screen antiproliferative activity, CNS SF-539. Here is the method: as §1, §2
Another data set relates to UACC-62. As to the kind of experiment: NCI screen antiproliferative activity, melanoma UACC-62. The protocol:
as §1, §2

The subject of another data set is OVCAR-3. As to the kind of experiment: NCI screen antiproliferative activity, ovarian OVCAR-3. The protocol: as §1, §2
For another data set, the system named is SN12C. Nature of the data set: NCI screen antiproliferative activity, renal SN12C. Here is the method: as §1, §2
A further data set concerns DU-145. As to the kind of experiment: NCI screen antiproliferative activity, prostate DU-145. Here is the method: as §1, §2
A further data set concerns MCF7. As to the kind of experiment: NCI screen antiproliferative activity, breast MCF7. The protocol: as §1, §2

Usually GI50 stands for the concentration at which growth is held to half of that of the control. Take `COc1cc2c3c(n(CCCN(C)C)c(=O)c2cc1OC)-c1ncccc1C3=O` [Compound 19, 7-Aza-5,6-dihydro-6-(3-dimethylaminopropyl)-2,3-dimethoxy-5,11-dioxo-11H-indeno[1,2-c]isoquinoline Hydrochloride]: the “Top1 Cleavage” value at human recombinant Top1 (Table 1) and on human recombinant Top1 (Table 2) was “+++” throughout. The results for the “MGM (mean graph midpoint for growth inhibition)” value in data set [1] (Table 1) and in data set [1] (Table 2) were 4.50 µM and 4.5 µM, respectively. Further, the GI50 in the data set on HOP-62 (Homo sapiens, HOP-62, 48 h, read-out: cytotoxicity (GI50) lung HOP-62, 48 h, sulforhodamine B, single determination, Table 1) is 3390 nM; in the data set on HOP-62 (Homo sapiens, HOP-62, 48 h, read-out: cytotoxicity (GI50) lung HOP-62, 48 h, sulforhodamine B, single determination, Table 2), 3400 nM; in the data set on HCT-116 (Homo sapiens, HCT-116, 48 h, read-out: cytotoxicity (GI50) colon HCT-116, 48 h, sulforhodamine B, single determination, Table 1), 1580 nM; in the data set on HCT-116 (Homo sapiens, HCT-116, 48 h, read-out: cytotoxicity (GI50) colon HCT-116, 48 h, sulforhodamine B, single determination, Table 2) it was 1600 nM; with SF-539 (Homo sapiens, 48 h, read-out: cytotoxicity (GI50) CNS SF-539, 48 h, sulforhodamine B, single determination, Table 2) it was 4100 nM; in the data set with UACC-62 (Homo sapiens, UACC-62, 48 h, read-out: cytotoxicity (GI50) melanoma UACC-62, 48 h, sulforhodamine B, single determination, Table 1) it was 13200 nM. Also, the GI50 in the data set on UACC-62 (Homo sapiens, UACC-62, 48 h, read-out: cytotoxicity (GI50) melanoma UACC-62, 48 h, sulforhodamine B, single determination, Table 2) was determined as 13000 nM; in the data set with OVCAR-3 (Homo sapiens, OVCAR-3, 48 h, read-out: cytotoxicity (GI50) ovarian OVCAR-3, 48 h, sulforhodamine B, single determination, Table 1), 3550 nM; in the data set with OVCAR-3 (Homo sapiens, OVCAR-3, 48 h, read-out: cytotoxicity (GI50) ovarian OVCAR-3, 48 h, sulforhodamine B, single determination, Table 2) it was 3600 nM; in the data set with SN12C (Homo sapiens, SN12C, 48 h, read-out: cytotoxicity (GI50) renal SN12C, 48 h, sulforhodamine B, single determination, Table 1), 3160 nM; in the data set on SN12C (Homo sapiens, SN12C, 48 h, read-out: cytotoxicity (GI50) renal SN12C, 48 h, sulforhodamine B, single determination, Table 2), 3200 nM; in the data set on DU-145 (Homo sapiens, DU-145, 48 h, read-out: cytotoxicity (GI50) prostate DU-145, 48 h, sulforhodamine B, single determination, Table 2), 1700 nM. In the data set on MCF7 (Homo sapiens, MCF7, 48 h, read-out: cytotoxicity (GI50) breast MCF7, 48 h, sulforhodamine B, single determination, Table 1), the GI50 was 440 nM.

Take `COc1cc2c3c(n(CCCN4CCOCC4)c(=O)c2cc1OC)-c1ccncc1C3=O.O=C(O)C(F)(F)F` [Compound 128, 9-Aza-5,6-dihydro-6-(3-(4-morpholino)propyl)-2,3-dimethoxy-5,11-dioxo-11H-indeno[1,2-c]isoquinoline Trifluoroacetate]: the “Top1 Cleavage” value at human recombinant Top1 (Table 2) is “++”. For the same compound, in [1] (Table 2), the “MGM (mean graph midpoint for growth inhibition)” value worked out at 9.5 µM. The GI50 with HOP-62 was 5000 nM; with HCT-116, 390 nM; in the data set on SF-539, > 100000 nM; with UACC-62, 85000 nM; with OVCAR-3, 12000 nM; in the data set on SN12C it was 5900 nM. Besides, the GI50 in the data set on DU-145 is 7600 nM; in the data set with MCF7 it was 1900 nM.

For orientation: melting point means the temperature, or range, at which the solid turns liquid. `COc1cc2c3c(n(CCCN(C)C)c(=O)c2cc1OC)-c1ncccc1C3=O` (as salt: hydrochloride) [Compound 19, 7-Aza-5,6-dihydro-6-(3-dimethylaminopropyl)-2,3-dimethoxy-5,11-dioxo-11H-indeno[1,2-c]isoquinoline Hydrochloride]: the melting point is 278 to 281 °C (dec.).

Turning to `COc1cnc2c(c1)C(=O)c1c-2n(CCCN2CCOCC2)c(=O)c2ccccc12` [Compound 64, 7-Aza-5,6-dihydro-6-(3-(4-morpholino)propyl)-9-methoxy-5,11-dioxo-11H-indeno[1,2-c]isoquinoline], the “Top1 Cleavage” value on human recombinant Top1 (Table 2) is reported as “++”. Besides, the “MGM (mean graph midpoint for growth inhibition)” value in data set [1] (Table 2) is 3.0 µM. For the same compound, the GI50 in the data set with HOP-62 stood at 4100 nM; with HCT-116, 2500 nM; with SF-539 it was 3500 nM; with UACC-62, 1700 nM; in the data set with OVCAR-3 it was 6300 nM; with SN12C it was 2600 nM. Besides, the values for the GI50 in the data set with DU-145 and with MCF7 were 3600 nM and 600 nM, respectively.

With `COc1cnc2c(c1)C(=O)c1c-2n(CCCN(C)C)c(=O)c2cc(OC)c(OC)cc12.Cl` [Compound 55, 7-Aza-5,6-dihydro-6-(3-dimethylaminopropyl)-2,3,9-trimethoxy-5,11-dioxo-11H-indeno[1,2-c]isoquinoline Hydrochloride], on human recombinant Top1 (Table 2), the “Top1 Cleavage” value was “+++”. Moreover, the “MGM (mean graph midpoint for growth inhibition)” value in data set [1] (Table 2) is 1.8 µM. In addition, the GI50 in the data set with HOP-62 stood at 920 nM; in the data set on HCT-116 it was 1500 nM; in the data set on SF-539, 1100 nM; in the data set with UACC-62, 3900 nM; with OVCAR-3, 2900 nM; with SN12C it was 3600 nM. The 50% growth inhibitory concentration (GI50) in the data set on DU-145 came to 880 nM; in the data set with MCF7, 130 nM.

On to `COc1cnc2c(c1)C(=O)c1c-2n(CCCN2CCOCC2)c(=O)c2cc(OC)c(OC)cc12.Cl` [Compound 56, 7-Aza-5,6-dihydro-6-[3-(4-morpholino)propyl]-2,3,9-trimethoxy-5,11-dioxo-11H-indeno[1,2-c]isoquinoline Hydrochloride], for which, on human recombinant Top1 (Table 2), the “Top1 Cleavage” value is “++”. Also, the “MGM (mean graph midpoint for growth inhibition)” value in [1] (Table 2) worked out at 0.48 µM. Further, the GI50 with HOP-62 came out at 240 nM; with HCT-116 it was 330 nM; in the data set on SF-539 it was 270 nM; with UACC-62 it was 220 nM; in the data set with OVCAR-3 it was 310 nM; with SN12C, 340 nM. Moreover, the concentration for 50% growth inhibition (GI50) worked out at 340 nM with DU-145 and 100 nM with MCF7.

`CN(C)CCCn1c2c(c3ccccc3c1=O)C(=O)c1cccnc1-2` (as salt: hydrochloride) [Compound 18, 7-Aza-5,6-dihydro-6-(3-dimethylaminopropyl)-5,11-dioxo-11H-indeno[1,2-c]-isoquinoline Hydrochloride] had a melting point of 268 to 270 °C.

With `COc1cnc2c(c1)C(=O)c1c-2n(CCCN(C)C)c(=O)c2ccccc12` [Compound 63, 7-Aza-5,6-dihydro-6-(3-dimethylaminopropyl)-9-methoxy-5,11-dioxo-11H-indeno[1,2-c]isoquinoline], the “Top1 Cleavage” value on human recombinant Top1 (Table 2) was “+++”. Besides, the “MGM (mean graph midpoint for growth inhibition)” value in data set [1] (Table 2) amounted to 0.40 µM. The GI50 in the data set on HOP-62 came out at 300 nM; with HCT-116, 340 nM; with SF-539, 570 nM; in the data set with UACC-62 it was 540 nM; in the data set on OVCAR-3, 940 nM; in the data set on SN12C, 260 nM. For the same compound, the GI50 came to 300 nM in the data set with DU-145 and 210 nM in the data set with MCF7.
